# Results published in article PMC6570535 (ACS infectious diseases, 2019).
# pEC50: −log10 of the molar value. No end group written: not given here.
# Key:
# fsr QS circuitry [1] = molecular target: T1, fsr QS circuitry (Enterococcus faecalis, UniProt A0ACD6TCR9); conditions: read-out: EC50 [95% CI]; previously published analog shown for comparison; ref [19]; cited from earlier work
# fsr QS circuitry [2] = molecular target: T1, fsr QS circuitry; assay: β-galactosidase cell-based bacterial reporter assay, QS activation; conditions: E. faecalis pGelE-lacZ reporter strain
# fsr QS circuitry [3] = molecular target: T1, fsr QS circuitry; assay: β-galactosidase reporter assay, inhibition of competitor GBAP signal; assay type: cell-based, E. faecalis; conditions: competition with GBAP
Substance,pEC50 (fsr QS circuitry [1]),activity as activator (fsr QS circuitry [2]),inhibitory activity (fsr QS circuitry [3])
"Ac-GBAP-Des(Q1N2) (Ac-SPNIFGQWM; also: cyclic, ring not given here) [Peptide 2]",9.00,,
Ac-GBAP-Des(Q1N2)[N-MeG8] [Peptide 7],,lost all activity,neither of these three analogs exhibit any inhibitory activity
Ac-GBAP-Des(Q1N2)[N-MeQ9] [Peptide 8],,lost all activity,neither of these three analogs exhibit any inhibitory activity
GBAP-F7A,< 6.00,,
